# Values of other authors in patent publication US20010039006A1, “Toxicity typing using embryoid bodies” (priority 1998, published 2001).
# Like-named read-outs stand apart in the source and are kept apart here.
# Tests used:
# [1] = for liver toxicity: known toxicity of the marketed drug
# [2] = human, in vivo
# [3] = in vivo
# [4] = human, in vivo; remark: listed apart in the source
smiles,measurement,setting,value
CC(=O)Nc1ccc(O)cc1 [acetominophen],TOXICITIES LIVER,"[1]; human, in vivo",+
c1ccc2c(c1)cc1ccc3cccc4ccc2c1c34 [benzo(a)pyrene],TOXICITIES CV,[2],+
N.N.O=C([O-])C1(C(=O)[O-])CCC1.[Pt+2] [carboplatin],TOXICITIES GI,[3],+
CCOC(=O)C(C)(C)Oc1ccc(Cl)cc1 [clofibrate],TOXICITIES LIVER,[1]; Table 1,ntc
N=C(N)NCCCCCCC(=O)NC(O)C(=O)NCCCCNCCCN (stereo not drawn) [deoxyspergualin],TOXICITIES CV,[2],+
CCC(=O)O[C@H]1[C@H](O[C@@H]2[C@@H](C)[C@H](O[C@H]3C[C@@](C)(OC)[C@@H](O)[C@H](C)O3)[C@@H](C)C(=O)O[C@H](CC)[C@@](C)(O)[C@H](O)[C@@H](C)C(=O)[C@H](C)C[C@@]2(C)O)O[C@H](C)C[C@@H]1N(C)C [erythromycin estolate],liver toxicity,[1],known liver toxicity
COc1nc(C(Cl)(Cl)Cl)c(Cl)c(OC)c1Cl [penclomedine],TOXICITIES CNS,[4],+
CN(CCOc1ccc(CC2SC(=O)NC2=O)cc1)c1ccccn1 (stereo not drawn) [rosiglitazone],TOXICITIES LIVER,[1]; Table 1,ntc
Cc1c(C)c2c(c(C)c1O)CCC(C)(COc1ccc(CC3SC(=O)NC3=O)cc1)O2 (stereo not drawn) [troglitazone],liver toxicity,[1],rare but severe liver toxicity
